# Source: patent US4764508A, “Complexes of flavanolignans with phospholipids, preparation thereof and associated pharmaceutical compositions” (Inverni Della Beffa S.p.A., priority 1985, dated 1988)
# Assays:
# [1] = test system: liver poisoning with carbon tetrachloride; assay: Anti-hepatotoxic activity of silybin and of 1:1 silybin-phosphatidylcholine complex in the rat, after poisoning with carbon tetrachloride; type: in vivo; settings: oral; for reduction in GOT and GPT (in words): carbon tetrachloride, equimolecular doses; for GOT: poisoned controls 339.40 ± 59.07; for GOT, % change (in brackets) / GPT, % change (in brackets): versus poisoned controls
# [2] = in vivo, po
# Text: phosphatidylcholine complex in the rat, after oral administration.
# [3] = Pharmacokinetic comparison between equimolar doses of silybin and of 1:1 silybin:phosphatidylcholine complex in man, oral administration; settings: 0.00 = below sensitivity of the method (35 ng/ml)
# [4] = Pharmacokinetic comparison between equimolar doses of silybin and of 1:1 silybin-phosphatidylcholine complex in the rat, after oral administration
# [5] = conclusion from literature reports; cited from earlier work
# [6] = Solubility in chloroform, ethyl ether or benzene
# [7] = silybin 25 mg/kg, complex 65.8 mg/kg (equivalent to 25 mg silybin), poisoned controls 145.40 ± 31.43
# [8] = silybin 25 mg/kg, complex 65.8 mg/kg (equivalent to 25 mg silybin)
# [9] = silybin 25 mg/kg, complex 65.8 mg/kg
# [10] = silybin 250 mg/kg (P < .05), complex 658 mg/kg (equivalent to 250 mg silybin; P < .01)
# [11] = silybin 250 mg/kg, complex 658 mg/kg (equivalent to 250 mg silybin), poisoned controls 145.40 ± 31.43, °° P < .01
# [12] = silybin 250 mg/kg, complex 658 mg/kg
Compound,reduction in GOT and GPT (in words) [1],"GPT [1, 7] [U/L]","GOT [1, 8] [U/L]","GOT, % change (in brackets) [1, 9] [%]","GPT, % change (in brackets) [1, 9] [%]","GOT [1, 10] [U/L]","GPT [1, 11] [U/L]","GOT, % change (in brackets) [1, 12] [%]","GPT, % change (in brackets) [1, 12] [%]",also measured
1:1 Silybin/soy phosphatidylcholine complex [1:1 silybin-phosphatidylcholine complex],significant reduction,65.90,181.80,-46.4,-54.7,148.10,46.90,-56.4,-67.8,absorption in the rat (in words) [2]: markedly in favour of the complexed form
"COc1cc(C2Oc3cc([C@H]4Oc5cc(O)cc(O)c5C(=O)[C@@H]4O)ccc3OC2CO)ccc1O (stereo partly drawn) [Silybin, silybin]",only a slight reduction,94.30,252.60,-25.6,-35.2,200.00,94.90,-41.1,-34.8,"concentration at sampling time 0.25 h ([3]; complex 700, silybin 270, 0.25 h): 0.00 ng/mL; concentration at sampling time 0.50 h ([3]; complex 700, silybin 270, 0.50 h): 0.00 ng/mL; concentration at sampling time 1.00 h ([3]; complex 700, silybin 270, 1.00 h): 0.00 ng/mL; concentration at sampling time 2.00 h ([3]; complex 700, silybin 270, 2.00 h): 0.00 ng/mL; concentration at sampling time 3.00 h ([3]; complex 700, silybin 270, 3.00 h): 0.00 ng/mL; concentration at sampling time 4.00 h ([3]; complex 700, silybin 270, 4.00 h): 0.00 ng/mL; concentration at sampling time 6.00 h ([3]; complex 700, silybin 270, 6.00 h): 0.00 ng/mL; concentration at sampling time 8.00 h ([3]; complex 700, silybin 270, 8.00 h): 0.00 ng/mL; concentration at 0.25 h ([4]; in vivo, po, 200 mg/kg): 70 ng/mL; concentration at 0.5 h ([4]; in vivo, po, 200 mg/kg): 60 ng/mL; concentration at 1 h ([4]; in vivo, po, 200 mg/kg): 110 ng/mL; concentration at 2 h ([4]; in vivo, po, 200 mg/kg): 50 ng/mL; concentration at 3 h ([4]; in vivo, po, 200 mg/kg): 50 ng/mL; concentration at sampling time 4.00 h ([4]; oral, complex 520 mg/kg (equivalent to 200 mg/kg silybin), silybin 200 mg/kg, 4.00 h, 0.00 = nondeterminable, below limit of 0.05 mcg/ml): 0 ng/mL; concentration at sampling time 6.00 h ([4]; oral, complex 520 mg/kg (equivalent to 200 mg/kg silybin), silybin 200 mg/kg, 6.00 h, 0.00 = nondeterminable, below limit of 0.05 mcg/ml): 0 ng/mL; oral bioavailability (in words) [5]: does not have really high or adequate bioavailability; solubility in chloroform, ethyl ether or benzene [6]: insoluble"
